Measurements: BindingDB's records for doi:10.7270/Q29S1T6B (n/a, 1997)

Each molecule was assayed against T1, Type-1 angiotensin II receptor B (Rattus norvegicus, UniProt P29089) (assay: Inhibition of binding of [125I]All at the angiotensin II type 1 receptor (AT1 receptor) in rat liver membranes).
T1 sequence (P29089 whole entry): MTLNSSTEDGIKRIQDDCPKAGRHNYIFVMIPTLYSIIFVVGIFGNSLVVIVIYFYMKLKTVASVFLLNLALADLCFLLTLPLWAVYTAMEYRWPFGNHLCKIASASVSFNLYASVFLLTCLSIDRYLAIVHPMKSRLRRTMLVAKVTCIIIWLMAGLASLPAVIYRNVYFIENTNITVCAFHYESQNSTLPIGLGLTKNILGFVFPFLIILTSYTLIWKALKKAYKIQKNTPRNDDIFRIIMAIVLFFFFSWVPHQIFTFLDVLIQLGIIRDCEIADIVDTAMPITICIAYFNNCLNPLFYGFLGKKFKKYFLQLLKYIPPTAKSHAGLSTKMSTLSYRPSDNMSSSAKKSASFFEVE

| Compound | Ki [nM] |
| --- | --- |
| CCc1nn(Cc2ccc(-c3ccccc3-c3nnn[nH]3)cc2)c(=NC(=O)c2ccccc2Cl)s1 [2-Chloro-N-[5-ethyl-3-[2'-(1H-tetrazol-5-yl)-biphenyl-4-ylmethyl]-3H-[1,3,4]thiadiazol-(2Z)-ylidene]-benzamide] | 3.4 |
| CCc1nn(Cc2ccc(-c3ccccc3-c3nnn[nH]3)cc2)c(=NC(=O)c2ccccc2)s1 [N-[5-Ethyl-3-[2'-(1H-tetrazol-5-yl)-biphenyl-4-ylmethyl]-3H-[1,3,4]thiadiazol-(2Z)-ylidene]-benzamide] | 36 |
| CCc1nn(Cc2ccc(-c3ccccc3-c3nnn[nH]3)cc2)c(=NC(=O)c2ccccc2C(=O)O)s1 [N-[5-Ethyl-3-[2'-(1H-tetrazol-5-yl)-biphenyl-4-ylmethyl]-3H-[1,3,4]thiadiazol-(2Z)-ylidene]-phthalamic acid] | 0.619 |
